Results from patent US9303062B2, “Solid oxidized glutathione salt and method for producing same” (priority 2011, dated 2016).

How the values were obtained:
[1] = Solubility in water at 25° C. under normal pressure; assay type: physicochemical; conditions: supernatant by HPLC
Procedure: The solubility of the solid oxidized glutathione salt of the present invention in water at temperature of 25° C. can be calculated according to the following formula, and the solubility is, for example, 10 mass % or more, preferably 20 mass % or more, and more preferably 30 mass % or more.
Solubility (%)=mass of dissolved oxidized glutathione/(mass of water+mass of dissolved oxidized glutathione)×100
Evaluation 1: Solubility in water at 25° C. under normal pressure and deliquescency of oxidized glutathione salt
Each of the powders of the solid-state oxidized glutathione salt obtained in the above respective Examples was dissolved in water until the powder was not further dissolved. After each slurry was stirred for 30 minutes or longer, the supernatant was obtained and the concentrations of each oxidized glutathione and salt were calculated using HPLC. For comparison, the solubilities of the following conventionally known solid oxidized glutathiones were investigated in the same manner as the above.

[2] = Deliquescency of powder at 25° C., normal pressure, 75% RH, observed with naked eyes; assay type: physicochemical; conditions: relative humidity 75% RH
Procedure: The solid oxidized glutathione salt obtained as described above has low deliquescency and high water solubility. The deliquescency of the solid oxidized glutathione can be evaluated by allowing a powder of the salt to stand in an environment at a temperature of 25° C., normal pressure, e.g. 1 atmospheric pressure, and a relative humidity of 75% RH, and observing whether deliquescence starts or not with naked eyes.
Each of the powders of the solid-state oxidized glutathione salt obtained in the above respective Examples was allowed to stand in atmospheric condition of a temperature of 25° C., normal pressure and a relative humidity of 75% RH. After 2 hours or 24 hours, it was determined whether or not deliquescence was is present by observing the occurrence of shape change with naked eyes. For comparison, the deliquescencies of the above commercially available solid oxidized glutathiones were investigated in the same manner.

Substance	Solubility [1]	Deliquescency 2 hours ([2]; after 2 hours)	Deliquescency 24 hours ([2]; after 24 hours)
oxidized glutathione monoammonium salt [Example 2]	34.8 mass %		
oxidized glutathione hemicalcium salt [Example 6]	58 mass %	no	no
